For one experiment, the system named is ERK. As to the kind of experiment: Western analysis of ERK phosphorylation. The experiment is classed as cell-based, human. The settings on record: KT5823 1 μmol/L or U0126 10 μmol/L, 15 min. How it is done: (§1) Lysis was induced with 0.2 ml of buffer containing 20 mM Tris-HCL, pH 7.9, 137 mM NaCl, 1% Triton X-100, 5 mM EDTA, 10 mM NaF, 1 mM β-glycerophosphate, and protease inhibitor cocktail. The protein concentration of each lysate was measured using coomassie protein reagent from PIERCE. Twenty μg of protein from each sample was loaded and electrophoresed on 4-12% gradient polyacrylamide gels and electrophoretically transferred to nitrocellulose membranes (Invitrogen, San Diego, Calif.). The membranes were incubated with rabbit anti-human Collagen 1 antibody (Cortex Biochem, San Leandro, Calif.), HRP-conjugated anti-human Fibronectin antibody, or goat anti-Actin antibody (Santa Cruz Biotehnology, Santa Cruz, Calif.) in TBST buffer containing 20 mM Tris-HCl, pH 7.5, 150 mM NaCl, 0.1% Tween-20, and 5% nonfat dried milk at 4° C. for ˜16 h. For ERK phosphorylation, cells were treated with 0.5 μmol/L BNP in the presence of 1 μmol/L KT5823 or 10 μmol/L U0126 for 15 min; the membranes were incubated with rabbit anti-human phospho-ERK ½ antibody or rabbit anti-human ERK ½ antibody (Cell Signaling, Beverly, Mass.). For secondary antibody detection, membranes were incubated with HRP-conjugated anti-rabbit antibody or anti-goat antibody at room temperature for 1 h and washed 3 times with TBST buffer. The blots were soaked in ECL Plus reagent for 5 min and exposed to KODAK x-ray film. Signals were identified and quantified using a Typhoon Scanner and Densitometer from Amersham Biosciences (Piscataway, N.J.). Data was analyzed by ANOVA using the Newman-Keuls test to assess significance. Results cGMP Production in Cardiac Fibroblasts

Experiment [1] has as its system human cardiac fibroblasts. Description: Real-time RT-PCR gene expression in cardiac fibroblasts. It counts as cell-based. The settings on record: U0126 0.1-10 μmol/L, PD98059 10 μmol/L, 48 h. As for the experimental part:
Real-time RT-PCR^18 was performed in a two-step manner. cDNA synthesis and real-time detection were carried out in a PTC-100™ Thermal Cycler (MJ Research Inc, Waltham, Mass.) and an ABI Prism™ 7700 Sequence Detection System (Applied Biosystems, Foster City, Calif.), respectively. Random hexamers (Qiagen, Valencia, Calif.) were used to generate cDNA from 200 ng RNA as described in Applied Biosystems User Bulletin #2. TaqMan™ PCR Core Reagent Kit or TaqMan™ Universal PCR Master Mix (Applied Biosystems) were used in subsequent PCR reactions according to the manufacturer's protocols. Relative quantitation of gene expression was performed using the relative standard curve method. All real-time RT-PCR reactions were performed in triplicate.
Sequence specific primers and probes were designed using Primer Express Version 2 software (Applied Biosystems). Sequences of primers and probes can be found in Table 1 below. Expression levels were normalized to 18S rRNA. The selection of 18S rRNA as an endogenous control was based on an evaluation of the ΔCT levels (Applied Biosystems document # 4308134C) of 6 “housekeeping” genes: Cyclophilin A, 18S, GAPDH, β-actin, β-Glucuronidase, and Hypoxanthine Guanine Phosphoribosyl Transferase.
For orientation: In qPCR the cycle at which signal appears reflects the starting amount.

Experiment [2] has as its system human cardiac fibroblasts. As to the kind of experiment: Western blot analysis of Collagen 1 and Fibronectin protein. The experiment is classed as cell-based. Particulars: U0126 0.1-10 μmol/L, PD98059 10 μmol/L, 48 h. As for the experimental part: as §1
(In general: A western blot detects proteins with antibodies after separation by electrophoresis.)

In the case of `COC(=O)[C@@]1(OC)C[C@H]2O[C@]1(C)n1c3ccccc3c3c4c(c5c6ccccc6n2c5c31)C(=O)N(C)C4` [KT5823], the “effect on BNP induced ERK phosphorylation” value in the experiment on ERK was “completely blocked”.

For `COc1cccc(-c2cc(=O)c3ccccc3o2)c1N` [PD98059], the “effect on BNP inhibition of TGFβ-induced Collagen-1 expression, real-time RT-PCR” value in experiment [1] is listed as “reversed”. Further, in experiment [2], the “effect on BNP inhibition of TGFβ-induced Collagen-1 expression, Western blot” value is recorded as “reversed”.

As to `N#CC(=C(/N)Sc1ccccc1N)/C(C#N)=C(\N)Sc1ccccc1N` [U0126], the “effect on BNP inhibition of TGFβ-induced Collagen-1 expression, real-time RT-PCR” value in experiment [1] was “reversed”. For the same molecule, the “effect on BNP inhibition of TGFβ-induced Collagen-1 expression, Western blot” value in experiment [2] is on record as “reversed”. The “effect on BNP induced ERK phosphorylation” value with ERK is reported as “completely blocked”.

The values above are taken from patent US20060019890A1, “Method for treating cardiac remodeling following myocardial injury” (priority 2004, published 2006).
